Source: article PMC12396409, “Screening and hit evaluation of a microbial metabolite library against the pathogenic Plasmodium falciparum and Toxoplasma gondii parasites” (International Journal for Parasitology: Drugs and Drug …, 2025)
Like-named read-outs stand apart in the source and are kept apart here.

What was measured:
[1] = test system: P. falciparum 3D7 parasites; assay: P. falciparum growth inhibition assay, 1-cycle (72 h treatment), SYBR DNA staining (library screen at 2 μg/mL and dose-response); format: cell-based, Plasmodium falciparum; settings: for activity at 2 µg/mL: Plasmodium falciparum
[2] = test system: P. falciparum 3D7 parasites; assay: P. falciparum growth inhibition assay, 2-cycle (120 h treatment), delayed-death screen and dose-response; format: cell-based, Plasmodium falciparum; settings: for activity at 2 µg/mL: Plasmodium falciparum
[3] = test system: T. gondii RH strain (RH-Tub-eYFP) tachyzoites; assay: microbe, parasite or virus in culture; format: cell-based, Toxoplasma gondii; settings: 72 h; for percent parasite growth at 2 µg/mL: Toxoplasma gondii
[4] = library screen at 2 μg/mL, % growth, replicate 1, read-out: Tg_72h_%Growth_Rep1
[5] = library screen at 2 μg/mL, % growth, replicate 2, read-out: Tg_72h_%Growth_Rep2

For `O=C1N[C@@H](Cc2ccccc2)C(=O)N2CCC[C@@H]12` [Cyclo(L-Phe-L-Pro)], the Pf_72h_%Growth_Rep1 ([1]; P. falciparum, 72 h, screen at 2 μg/mL, replicate 1) was 92.82%, the Pf_72h_%Growth_Rep2 ([1]; P. falciparum, 72 h, screen at 2 μg/mL, replicate 2) was 90.35% and the Pf_120h_%Growth_Rep1 ([2]; P. falciparum, 120 h, screen at 2 μg/mL, replicate 1) was 82.75%. For the same compound, the Pf_120h_%Growth_Rep2 ([2]; P. falciparum, 120 h, screen at 2 μg/mL, replicate 2) was 99.85%, the Tg_72h_%Growth_Rep1 ([3]; T. gondii, screen at 2 μg/mL, replicate 1) was 128.14% and the Tg_72h_%Growth_Rep2 ([3]; T. gondii, screen at 2 μg/mL, replicate 2) was 102.31%.

`CC(CCCCCCCCCCCCCCOC1OC(CO)C(O)C(O)C1O)C(O)=C1C(=O)C(C)N(C)C1=O` (stereo not drawn) [Epicoccamide] gave a Pf_72h_%Growth_Rep1 ([1]; library screen at 2 μg/mL, 72 h, % growth, replicate 1) of 87.59%, a Pf_72h_%Growth_Rep2 ([1]; library screen at 2 μg/mL, 72 h, % growth, replicate 2) of 88.25% and a Pf_120h_%Growth_Rep1 ([2]; library screen at 2 μg/mL, 120 h, % growth, replicate 1) of 94.92%. The Pf_120h_%Growth_Rep2 ([2]; library screen at 2 μg/mL, 120 h, % growth, replicate 2) was 97.01%, the Tg_72h_%Growth_Rep1 ([3]; library screen at 2 μg/mL, % growth, replicate 1) was 135.91% and the Tg_72h_%Growth_Rep2 ([3]; library screen at 2 μg/mL, % growth, replicate 2) was 106.99%.

Work on `C[C@H]1O[C@@H]2CC(=O)O[C@@H]2C2=C1C(=O)c1c(O)cc3c(c1C2=O)[C@H]1C[C@@H](N(C)C)[C@H](O)[C@]3(C)O1` [Sch 38519] yielded a Pf_72h_%Growth_Rep1 ([1]; P. falciparum, 72 h, parasite screen 2 μg/mL, % growth, replicate 1) of 54.64%, a Pf_72h_%Growth_Rep2 ([1]; P. falciparum, 72 h, parasite screen 2 μg/mL, % growth, replicate 2) of 23.72% and a Pf_120h_%Growth_Rep1 ([2]; P. falciparum, 120 h, parasite screen 2 μg/mL, % growth, replicate 1) of 51.02%. For the same compound, the Pf_120h_%Growth_Rep2 ([2]; P. falciparum, 120 h, parasite screen 2 μg/mL, % growth, replicate 2) was 51.53%, the Tg_72h_%Growth_Rep1 ([3]; T. gondii, parasite screen 2 μg/mL, % growth, replicate 1) was 50.53% and the Tg_72h_%Growth_Rep2 ([3]; T. gondii, parasite screen 2 μg/mL, % growth, replicate 2) was 29.49%.

`Cc1cc(O)c(C=O)c2c1C(=O)Oc1c(COC(=O)/C=C/C(=O)O)c(O)c(C(=O)O)c(C)c1O2` [Fumarprotocetraric acid] showed an activity at 2 µg/mL ([1]; 3D7, library screen at 2 μg/mL, 72 h, % growth, replicate 1, read-out: Pf_72h_%Growth_Rep1) of 84.6%, an activity at 2 µg/mL ([1]; 3D7, library screen at 2 μg/mL, 72 h, % growth, replicate 2, read-out: Pf_72h_%Growth_Rep2) of 90.2% and an activity at 2 µg/mL ([2]; 3D7, library screen at 2 μg/mL, 120 h, % growth, replicate 1, read-out: Pf_120h_%Growth_Rep1) of 102%. It also gave an activity at 2 µg/mL ([2]; 3D7, library screen at 2 μg/mL, 120 h, % growth, replicate 2, read-out: Pf_120h_%Growth_Rep2) of 100%, a percent parasite growth at 2 µg/mL [3, 4] of 126% and a percent parasite growth at 2 µg/mL [3, 5] of 103%.

`COc1cc2nccc3c4ccccc4n(c1=O)c23` [BIA-M1940] showed a Pf_72h_%Growth_Rep1 ([1]; P. falciparum 3D7, 72 h, parasite screen at 2 μg/mL, % growth, replicate 1) of 95.54%, a Pf_72h_%Growth_Rep2 ([1]; P. falciparum 3D7, 72 h, parasite screen at 2 μg/mL, % growth, replicate 2) of 122.74% and a Pf_120h_%Growth_Rep1 ([2]; P. falciparum 3D7, 120 h, parasite screen at 2 μg/mL, % growth, replicate 1) of 112.19%. For the same compound, the Pf_120h_%Growth_Rep2 ([2]; P. falciparum 3D7, 120 h, parasite screen at 2 μg/mL, % growth, replicate 2) was 105.38%, the Tg_72h_%Growth_Rep1 ([3]; T. gondii, parasite screen at 2 μg/mL, % growth, replicate 1) was 156.47% and the Tg_72h_%Growth_Rep2 ([3]; T. gondii, parasite screen at 2 μg/mL, % growth, replicate 2) was 73.09%.

For `C=CC(C)(C)[C@@]12C[C@H]3C(=O)N[C@H](CC(C)C)C(=O)N3[C@H]1N(C(C)=O)c1ccccc12` [Verrucofortine], the activity at 2 µg/mL ([1]; 3D7, P. falciparum, 72 h, screen at 2 μg/mL, replicate 1, read-out: Pf_72h_%Growth_Rep1) was 70%, the activity at 2 µg/mL ([1]; 3D7, P. falciparum, 72 h, screen at 2 μg/mL, replicate 2, read-out: Pf_72h_%Growth_Rep2) was 83.7% and the activity at 2 µg/mL ([2]; 3D7, P. falciparum, 120 h, screen at 2 μg/mL, replicate 1, read-out: Pf_120h_%Growth_Rep1) was 152%. For the same compound, the activity at 2 µg/mL ([2]; 3D7, P. falciparum, 120 h, screen at 2 μg/mL, replicate 2, read-out: Pf_120h_%Growth_Rep2) was 81.9%, the percent parasite growth at 2 µg/mL ([3]; T. gondii, screen at 2 μg/mL, replicate 1, read-out: Tg_72h_%Growth_Rep1) was 90.9% and the percent parasite growth at 2 µg/mL ([3]; T. gondii, screen at 2 μg/mL, replicate 2, read-out: Tg_72h_%Growth_Rep2) was 99.7%.

`CC1=C[C@H](O/C=C2/C(=O)O[C@@H]3c4ccccc4C[C@H]23)OC1=O` [BIA-G1793] showed a Pf_72h_%Growth_Rep1 ([1]; P. falciparum 3D7, 72 h, library screen at 2 μg/mL, % growth, replicate 1) of 84.39%, a Pf_72h_%Growth_Rep2 ([1]; P. falciparum 3D7, 72 h, library screen at 2 μg/mL, % growth, replicate 2) of 84.87% and a Pf_120h_%Growth_Rep1 ([2]; P. falciparum 3D7, 120 h, library screen at 2 μg/mL, % growth, replicate 1) of 86.54%. It also gave a Pf_120h_%Growth_Rep2 ([2]; P. falciparum 3D7, 120 h, library screen at 2 μg/mL, % growth, replicate 2) of 104.67%, a Tg_72h_%Growth_Rep1 ([3]; T. gondii RH, library screen at 2 μg/mL, % growth, replicate 1) of 120.90% and a Tg_72h_%Growth_Rep2 ([3]; T. gondii RH, library screen at 2 μg/mL, % growth, replicate 2) of 91.67%.

For `CC[C@@H]1C[C@H]2CC[C@H](O2)[C@H](C)C(=O)O[C@@H](C)C[C@@H]2CC[C@@H](O2)[C@@H](C)C(=O)O[C@H](CC)C[C@H]2CC[C@H](O2)[C@H](C)C(=O)O[C@@H](C)C[C@@H]2CC[C@@H](O2)[C@@H](C)C(=O)O1` [Dinactin], the activity at 2 µg/mL ([1]; 3D7, 72 h, library screen at 2 μg/mL, 72 h, % growth, replicate 1, read-out: Pf_72h_%Growth_Rep1) was 3.66%, the activity at 2 µg/mL ([1]; 3D7, 72 h, library screen at 2 μg/mL, 72 h, % growth, replicate 2, read-out: Pf_72h_%Growth_Rep2) was -1.84% and the activity at 2 µg/mL ([2]; 3D7, 120 h, library screen at 2 μg/mL, 120 h, % growth, replicate 1, read-out: Pf_120h_%Growth_Rep1) was 15.7%. It also gave an activity at 2 µg/mL ([2]; 3D7, 120 h, library screen at 2 μg/mL, 120 h, % growth, replicate 2, read-out: Pf_120h_%Growth_Rep2) of 11%, a percent parasite growth at 2 µg/mL [3, 4] of 5.15% and a percent parasite growth at 2 µg/mL [3, 5] of 2.32%.
